Data reported in patent US20210212968A1, “COMBINATIONS COMPRISING AN SSAO/VAP-1 INHIBITOR AND A SGLT2 INHIBITOR, USES THEREOF” (Boehringer Ingelheim International GmbH, priority 2016, published 2021).

Columns and labels:
[1] = metformin on its own, in the diabetic; cited from earlier work
[2] = patients with type 2 diabetes mellitus at high risk for cardiovascular events; cited from earlier work
SGLT2 versus SGLT1 = conditions: cited from earlier work
human diamine oxidase = molecular target: T1, human diamine oxidase (Homo sapiens, UniProt P19801); experiment: inhibition of human diamine oxidase; type: biochemical
T1 sequence (P19801 20-751): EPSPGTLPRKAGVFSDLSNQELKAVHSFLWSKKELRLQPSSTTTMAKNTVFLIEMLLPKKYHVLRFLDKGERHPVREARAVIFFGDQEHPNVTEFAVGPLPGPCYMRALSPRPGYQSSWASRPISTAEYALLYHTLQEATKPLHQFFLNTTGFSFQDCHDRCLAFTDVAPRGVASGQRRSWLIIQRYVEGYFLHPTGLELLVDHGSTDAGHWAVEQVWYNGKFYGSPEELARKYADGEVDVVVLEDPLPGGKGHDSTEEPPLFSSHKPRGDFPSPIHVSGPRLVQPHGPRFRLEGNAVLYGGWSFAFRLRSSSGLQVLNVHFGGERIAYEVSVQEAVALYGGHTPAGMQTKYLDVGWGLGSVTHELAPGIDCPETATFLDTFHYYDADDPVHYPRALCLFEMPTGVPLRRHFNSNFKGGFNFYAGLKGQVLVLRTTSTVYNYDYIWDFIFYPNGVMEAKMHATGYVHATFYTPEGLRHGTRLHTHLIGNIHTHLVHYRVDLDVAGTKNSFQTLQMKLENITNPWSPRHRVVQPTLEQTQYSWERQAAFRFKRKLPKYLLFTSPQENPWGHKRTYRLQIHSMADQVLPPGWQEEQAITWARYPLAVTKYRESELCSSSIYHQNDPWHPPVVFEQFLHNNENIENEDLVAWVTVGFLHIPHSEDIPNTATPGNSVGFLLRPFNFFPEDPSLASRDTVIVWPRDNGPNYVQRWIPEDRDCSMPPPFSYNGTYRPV

CN(C)C(=N)N=C(N)N [metformin]
average improvement in the HbA1c value [1]: 1.0-1.5%

OC[C@H]1O[C@@H](c2ccc(Cl)c(Cc3ccc(O[C@H]4CCOC4)cc3)c2)[C@H](O)[C@@H](O)[C@@H]1O [empagliflozin]
rates of the primary composite cardiovascular outcome and of death from any cause [2]: significantly lower rates | selectivity SGLT2 versus SGLT1 (SGLT2 versus SGLT1): high selectivity

CC(C)(C)NC(=O)c1ccc(OC/C(=C/F)CN)cc1 [Compound 23, (E)-4-(2-(Aminomethyl)-3-fluoroallyloxy)-N-tert-butylbenzamide]
inhibitory activity against human diamine oxidase (human diamine oxidase): low inhibitory activity
